Measurements published in patent US20110112133A1, “DIHYDRO PYRROLOQUINOLINE DERIVATIVES” (Takeda Pharmaceutical Company Limited, priority 2009, published 2011).
Structures can show the parent of a compound that is named as a salt.

Columns and labels:
hNK2 receptor = target: T1, hNK2 receptor (Homo sapiens, UniProt P21452); assay: Radioligand receptor binding inhibitory activity using membrane fraction of hNK2 receptor-expressing CHO cell ([125I]-NKA); details: for inhibition at 1 µM / inhibition at 0.1 µM / inhibition at 0.01 µM: read-out: hNK2 receptor binding inhibitory activity (inhibitory rate (%))
T1 construct: host or cells: CHO cells
T1 sequence (P21452 1-398): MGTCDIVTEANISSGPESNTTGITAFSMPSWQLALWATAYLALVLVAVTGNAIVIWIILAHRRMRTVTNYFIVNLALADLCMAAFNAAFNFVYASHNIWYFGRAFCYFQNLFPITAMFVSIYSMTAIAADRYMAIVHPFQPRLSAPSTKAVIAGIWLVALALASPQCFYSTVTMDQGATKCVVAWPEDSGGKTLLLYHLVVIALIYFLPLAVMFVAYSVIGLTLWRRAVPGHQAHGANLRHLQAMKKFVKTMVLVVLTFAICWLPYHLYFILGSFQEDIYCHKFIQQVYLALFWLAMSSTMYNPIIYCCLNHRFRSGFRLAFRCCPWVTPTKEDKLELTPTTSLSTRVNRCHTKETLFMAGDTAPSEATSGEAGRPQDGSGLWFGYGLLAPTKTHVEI
Experimental: Radioligand Receptor Binding Inhibitory Activity Using Membrane Fraction of hNK2 Receptor-Expressing CHO Cell
hNK2 receptor-expressing CHO cells (produced by EUROSCREEN) were cultured in a flask placed HAM-F12 medium containing 400 μg/mL Geneticin, 100 U/mL penicillin, 100 μg/mL streptomycin and 10% inactivated serum. The medium was removed and adhered cells were washed with PBS, and PBS containing 5 mM EDTA was added to detach the cells from the flask. The cells were recovered by centrifugation, suspended in suspending buffer A (15 mM Tris-HCl (pH 7.5), 12.5 mM MgCl2, 0.3 mM EDTA, 1 mM EGTA (Ethylene Glycol Bis(beta-aminoethylether)-N,N,N,N-tetraacetic Acid)), disrupted by POLYTRON homogenizer (manufactured by KINEMATICA) and centrifuged at 850×g for 10 min at 4° C. The supernatant was recovered and ultracentrifuged at 142000×g for 60 min at 4° C. The precipitated fraction was suspended in suspending buffer B (7.5 mM Tris-HCl (pH 7.5), 12.5 mM MgCl2, 0.3 mM EDTA, 1 mM EGTA, 250 mM sucrose), and cryopreserved (at −80° C.) as a membrane fraction preparation of hNK2 receptor-expressing CHO cell.
The radioligand receptor binding assay was performed in a 96 well microassay plate format with a final volume of 200 μL.
An assay buffer (50 μL, 50 mM Tris-HCl (pH 7.4), 0.02% bovine serum albumin, 2 μg/mL chymostatin, 40 μg/mL bacitracin, 40 μg/mL APMSF, 3 mM MnCl2) was added to a 96 well microassay plate. Thereto was added 50 μL of the above-mentioned cryopreserved membrane fraction preparation suspended in the assay buffer (20 μg/mL). An assay buffer (50 μL) containing 2% dimethyl sulfoxide was added to examine the total binding, 4 μM unlabeled NKA (produced by Peptide Institute, Inc.) solution (50 μL) diluted with an assay buffer containing 2% dimethyl sulfoxide was added to examine non-specific binding, and a test compound diluted with an assay buffer (50 μL, containing 2% dimethyl sulfoxide) was added. Furthermore, […] [^125I]-NKA (produced by NEN) solution (50 μL) was added to each well.
After reaction at room temperature for 30 min, using a cell harvester (manufactured by PerkinElmer), the reaction was stopped by rapid filtration on a unifilter plate (GF/C) (manufactured by PerkinElmer), which had been immersed in 0.3% aqueous polyethyleneimine solution for one day, and the cells were washed 10 times with 50 mM Tris-HCl (pH 7.4) buffer (250 μL) containing 0.02% bovine serum albumin. The GF/C filter plate was dried and 20 μL of MicroScinti-0 (manufactured by PerkinElmer) was added to each well and the radioactivity was measured by TopCount (manufactured by PerkinElmer).
Specific binding is shown by the value obtained by subtracting non-specific binding from the total binding. The binding inhibitory activity of the test compound is shown by the ratio of the value obtained by subtracting the measured value associated with the addition of the test compound from the total binding, to the value of the specific binding.

inhibition at 1 µM (hNK2 receptor; test compound 10^−6 M) [%]	inhibition at 0.1 µM (hNK2 receptor; test compound 10^−7 M) [%]	inhibition at 0.01 µM (hNK2 receptor; test compound 10^−8 M) [%]	hNK2 receptor binding inhibitory activity (inhibitory rate (%)) (hNK2 receptor; test compound 10^−6 M) [%]	hNK2 receptor binding inhibitory activity (inhibitory rate (%)) (hNK2 receptor; test compound 10^−7 M) [%]	hNK2 receptor binding inhibitory activity (inhibitory rate (%)) (hNK2 receptor; test compound 10^−8 M) [%]	melting point [°C]	Compound
99.4	99.4	96.1					Cc1ccn(-c2ccc(C(=O)N[C@@H]3CCC(F)(F)C[C@@H]3C(=O)N3CCc4c(-c5ncc[nH]5)nc5ccc(F)cc5c43)cc2)n1 [Example 6, N-[(1R,2S)-4,4-difluoro-2-{[8-fluoro-4-(1H-imidazol-2-yl)-2,3-dihydro-1H-pyrrolo[3,2-c]quinolin-1-yl]carbonyl}cyclohexyl]-4-(3-methyl-1H-pyrazol-1-yl)benzamide hydrochloride]
			100.7	100.2	98.5		Cc1ccn(-c2ccc(C(=O)N[C@@H]3CCC(F)(F)C[C@@H]3C(=O)N3CCc4c(-c5ccsc5)nc5ccccc5c43)cc2)n1.Cl [Example 8]
			99.9	99.5	92.8		Cc1ccn(-c2ccc(C(=O)N[C@@H]3CCC(F)(F)C[C@@H]3C(=O)N3CCc4c(-c5ccccc5)nc5ccc(F)cc5c43)cc2)n1.Cl [Example 10, N-{(1R,2S)-4,4-difluoro-2-[(8-fluoro-4-phenyl-2,3-dihydro-1H-pyrrolo[3,2-c]quinolin-1-yl)carbonyl]cyclohexyl}-4-(3-methyl-1H-pyrazol-1-yl)benzamide hydrochloride]
101	101	99.8				232	Cc1ccn(-c2ccc(C(=O)N[C@@H]3CCC(F)(F)C[C@@H]3C(=O)N3CCc4c(-c5ncc[nH]5)nc5ccccc5c43)cc2)n1.Cl [Example 12, N-[(1R,2S)-4,4-difluoro-2-{[4-(1H-imidazol-2-yl)-2,3-dihydro-1H-pyrrolo[3,2-c]quinolin-1-yl]carbonyl}cyclohexyl]-4-(3-methyl-1H-pyrazol-1-yl)benzamide hydrochloride]
